In the supplement of paper PMC10307832:

Experiments:
Assay in all cases: relative viability (nuclei count vs DMSO), 5 days (fraction); higher = more cells survive
EMC-BAC-2 = system: EMC-BAC-2
How it was run: (§1)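 Lung cancer cell lines were pin-tool dosed in 1536-well plates on the day after seeding, with either a lone drug or a fixed anchor-drug dose plus five library-drug doses (not always all listed) in √10 steps. Nuclei were counted on 4× images after 5 days. Relative viability is the ratio of treated-well to vehicle-well nuclei counts, with each value a median of duplicate plates.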

HARA = system: HARA
How it was run: as §1

NCI-H2170 = system: NCI-H2170
How it was run: as §1

SK-LU-1 = system: SK-LU-1
How it was run: as §1

SW 1573 = system: SW 1573
How it was run: as §1

HOP-62 = system: HOP-62
How it was run: as §1

NCI-H1993 = system: NCI-H1993
How it was run: as §1

COR-L23 = system: COR-L23
How it was run: as §1

NCI-H1793 = system: NCI-H1793
How it was run: as §1

NCI-H2228 = system: NCI-H2228
How it was run: as §1

NCI-H3122 = system: NCI-H3122
How it was run: as §1

SW 900 = system: SW 900
How it was run: as §1

NCI-H727 = system: NCI-H727
How it was run: as §1

A-427 = system: A-427
How it was run: as §1

LU99A = system: LU99A
How it was run: as §1

NCI-H2009 = system: NCI-H2009
How it was run: as §1

ABC-1 = system: ABC-1
How it was run: as §1

LXF-289 = system: LXF-289
How it was run: as §1

NCI-H1944 = system: NCI-H1944
How it was run: as §1

LK-2 = system: LK-2
How it was run: as §1

SK-MES-1 = system: SK-MES-1
How it was run: as §1

NCI-H596 = system: NCI-H596
How it was run: as §1

PC-3 [JPC-3] = system: PC-3 [JPC-3]
How it was run: as §1

Clc1ccc(Nc2nnc(Cc3ccncc3)c3ccccc23)cc1 [Vatalanib] + O=C(CCCCCCC(=O)Nc1ccccc1)NO [Vorinostat] (partner 1 µM)
relative viability (EMC-BAC-2; first compound 0.04 µM): 0.448 | relative viability (EMC-BAC-2; first compound 0.1265 µM): 0.414 | relative viability (EMC-BAC-2; first compound 0.4 µM): 0.392 | relative viability (EMC-BAC-2; first compound 4 µM): 0.457 | relative viability (HARA; first compound 0.04 µM): 0.643 | relative viability (HARA; first compound 0.1265 µM): 0.51 | relative viability (HARA; first compound 0.4 µM): 0.479 | relative viability (HARA; first compound 1.265 µM): 0.566 | relative viability (HARA; first compound 4 µM): 0.481 | relative viability (NCI-H2170; first compound 0.04 µM): 0.858 | relative viability (NCI-H2170; first compound 0.1265 µM): 0.853 | relative viability (NCI-H2170; first compound 0.4 µM): 0.825 | relative viability (NCI-H2170; first compound 1.265 µM): 0.743 | relative viability (NCI-H2170; first compound 4 µM): 0.764 | relative viability (SK-LU-1; first compound 0.04 µM): 0.829 | relative viability (SK-LU-1; first compound 0.1265 µM): 0.798 | relative viability (SK-LU-1; first compound 0.4 µM): 1 | relative viability (SK-LU-1; first compound 1.265 µM): 0.721 | relative viability (SK-LU-1; first compound 4 µM): 0.8 | relative viability (SW 1573; first compound 0.1265 µM): 0.812 | relative viability (SW 1573; first compound 0.4 µM): 1.4 | relative viability (SW 1573; first compound 1.265 µM): 0.839 | relative viability (SW 1573; first compound 4 µM): 0.624 | relative viability (HOP-62; first compound 0.04 µM): 0.6 | relative viability (HOP-62; first compound 0.1265 µM): 0.557 | relative viability (HOP-62; first compound 0.4 µM): 0.758 | relative viability (HOP-62; first compound 1.265 µM): 0.597 | relative viability (HOP-62; first compound 4 µM): 0.642 | relative viability (NCI-H1993; first compound 0.04 µM): 0.728 | relative viability (NCI-H1993; first compound 0.1265 µM): 0.795 | relative viability (NCI-H1993; first compound 0.4 µM): 0.806 | relative viability (NCI-H1993; first compound 1.265 µM): 0.709 | relative viability (NCI-H1993; first compound 4 µM): 0.726 | relative viability (COR-L23; first compound 0.04 µM): 0.356 | relative viability (COR-L23; first compound 0.1265 µM): 0.553 | relative viability (COR-L23; first compound 0.4 µM): 0.499 | relative viability (COR-L23; first compound 1.265 µM): 0.417 | relative viability (COR-L23; first compound 4 µM): 0.469 | relative viability (NCI-H1793; first compound 0.04 µM): 0.767 | relative viability (NCI-H1793; first compound 0.1265 µM): 0.845 | relative viability (NCI-H1793; first compound 0.4 µM): 0.97 | relative viability (NCI-H1793; first compound 1.265 µM): 0.66 | relative viability (NCI-H1793; first compound 4 µM): 0.71 | relative viability (NCI-H2228; first compound 0.04 µM): 0.795 | relative viability (NCI-H2228; first compound 0.1265 µM): 0.589 | relative viability (NCI-H2228; first compound 0.4 µM): 0.653 | relative viability (NCI-H2228; first compound 1.265 µM): 0.723 | relative viability (NCI-H2228; first compound 4 µM): 0.751 | relative viability (NCI-H3122; first compound 0.04 µM): 1.27 | relative viability (NCI-H3122; first compound 0.1265 µM): 0.99 | relative viability (NCI-H3122; first compound 0.4 µM): 0.96 | relative viability (NCI-H3122; first compound 1.265 µM): 1.01 | relative viability (NCI-H3122; first compound 4 µM): 1.12 | relative viability (SW 900; first compound 0.04 µM): 0.551 | relative viability (SW 900; first compound 0.1265 µM): 0.549 | relative viability (SW 900; first compound 0.4 µM): 0.583 | relative viability (SW 900; first compound 1.265 µM): 0.344 | relative viability (SW 900; first compound 4 µM): 0.591 | relative viability (NCI-H727; first compound 0.1265 µM): 1.28 | relative viability (NCI-H727; first compound 0.4 µM): 1.17 | relative viability (NCI-H727; first compound 1.265 µM): 1.1 | relative viability (NCI-H727; first compound 4 µM): 1.17 | relative viability (A-427; first compound 0.04 µM): 0.874 | relative viability (A-427; first compound 0.1265 µM): 0.852 | relative viability (A-427; first compound 0.4 µM): 0.945 | relative viability (A-427; first compound 4 µM): 0.83 | relative viability (LU99A; first compound 0.04 µM): 0.554 | relative viability (LU99A; first compound 0.1265 µM): 0.544 | relative viability (LU99A; first compound 0.4 µM): 0.535 | relative viability (LU99A; first compound 1.265 µM): 0.472 | relative viability (LU99A; first compound 4 µM): 0.467 | relative viability (NCI-H2009; first compound 0.04 µM): 0.767 | relative viability (NCI-H2009; first compound 0.1265 µM): 0.741 | relative viability (NCI-H2009; first compound 0.4 µM): 0.735 | relative viability (NCI-H2009; first compound 1.265 µM): 0.732 | relative viability (NCI-H2009; first compound 4 µM): 0.687 | relative viability (ABC-1; first compound 0.04 µM): 1.06 | relative viability (ABC-1; first compound 0.1265 µM): 0.863 | relative viability (ABC-1; first compound 0.4 µM): 1.01 | relative viability (ABC-1; first compound 4 µM): 1.39 | relative viability (LXF-289; first compound 0.04 µM): 0.844 | relative viability (LXF-289; first compound 0.1265 µM): 0.832 | relative viability (LXF-289; first compound 0.4 µM): 0.801 | relative viability (LXF-289; first compound 1.265 µM): 0.712 | relative viability (LXF-289; first compound 4 µM): 0.75 | relative viability (NCI-H1944; first compound 0.04 µM): 0.546 | relative viability (NCI-H1944; first compound 0.1265 µM): 0.523 | relative viability (NCI-H1944; first compound 0.4 µM): 0.676 | relative viability (NCI-H1944; first compound 1.265 µM): 0.529 | relative viability (NCI-H1944; first compound 4 µM): 0.526 | relative viability (LK-2; first compound 0.04 µM): 0.388 | relative viability (LK-2; first compound 0.1265 µM): 0.314 | relative viability (LK-2; first compound 0.4 µM): 0.328 | relative viability (LK-2; first compound 1.265 µM): 0.308 | relative viability (LK-2; first compound 4 µM): 0.222 | relative viability (SK-MES-1; first compound 0.04 µM): 1.13 | relative viability (SK-MES-1; first compound 0.1265 µM): 1.11 | relative viability (SK-MES-1; first compound 0.4 µM): 1.12 | relative viability (SK-MES-1; first compound 1.265 µM): 0.98 | relative viability (SK-MES-1; first compound 4 µM): 0.985 | relative viability (NCI-H596; first compound 0.04 µM): 0.603 | relative viability (NCI-H596; first compound 0.1265 µM): 0.542 | relative viability (NCI-H596; first compound 0.4 µM): 0.672 | relative viability (NCI-H596; first compound 1.265 µM): 0.583 | relative viability (NCI-H596; first compound 4 µM): 0.608 | relative viability (PC-3 [JPC-3]; first compound 0.04 µM): 0.837 | relative viability (PC-3 [JPC-3]; first compound 0.1265 µM): 0.736 | relative viability (PC-3 [JPC-3]; first compound 0.4 µM): 0.721 | relative viability (PC-3 [JPC-3]; first compound 1.265 µM): 0.342 | relative viability (PC-3 [JPC-3]; first compound 4 µM): 0.688
